# Tests used:
# Assay in all cases: relative viability (nuclei count vs DMSO), 5 days (fraction); higher = more cells survive
# Ibrutinib = compound: C=CC(=O)N1CCC[C@@H](n2nc(-c3ccc(Oc4ccccc4)cc3)c3c(N)ncnc32)C1 [Ibrutinib]
# Summary of the method: (§1)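 Lung cancer cell lines were seeded into 1536-well plates, kept overnight at 37 °C and pinned with five library-drug doses (not always all listed) spaced by √10. After 5 days, nuclei were Hoechst-stained, imaged at 4× and counted with MetaXpress. Viability is treated-well nuclei over vehicle-well nuclei, taken as a median across plates. Plates needed control CV below 25% and at least one doubling.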
# BMX-IN-1 = compound: C=CC(=O)Nc1cc(-n2c(=O)ccc3cnc4ccc(-c5ccc(NS(C)(=O)=O)cc5)cc4c32)ccc1C [BMX-IN-1]
# Summary of the method: as §1
# PAC-1 = compound: C=CCc1cccc(/C=N/NC(=O)CN2CCN(Cc3ccccc3)CC2)c1O [PAC-1]
# Summary of the method: as §1
# BMX-IN-1 + Crizotinib = compound: C=CC(=O)Nc1cc(-n2c(=O)ccc3cnc4ccc(-c5ccc(NS(C)(=O)=O)cc5)cc4c32)ccc1C [BMX-IN-1] + C[C@@H](Oc1cc(-c2cnn(C3CCNCC3)c2)cnc1N)c1c(Cl)ccc(F)c1Cl [Crizotinib] (partner 1 µM)
# Summary of the method: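 Lung cancer cell lines were pin-tool dosed in 1536-well plates on the day after seeding, with either a lone drug or a fixed anchor-drug dose plus five library-drug doses (not always all listed) in √10 steps. Nuclei were counted on 4× images after 5 days. Relative viability is the ratio of treated-well to vehicle-well nuclei counts, with each value a median of duplicate plates.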
cell line,measurement,setting,value
NCI-H1650,relative viability,Ibrutinib; 0.005 µM,0.793
same,relative viability,Ibrutinib; 0.01581 µM,0.841
same,relative viability,Ibrutinib; 0.05 µM,0.76
same,relative viability,Ibrutinib; 0.1581 µM,0.79
same,relative viability,Ibrutinib; 0.5 µM,0.706
same,relative viability,BMX-IN-1; 0.02 µM,1
same,relative viability,BMX-IN-1; 0.2 µM,0.896
same,relative viability,BMX-IN-1; 0.6325 µM,1.01
same,relative viability,BMX-IN-1; 2 µM,0.772
same,relative viability,PAC-1; 0.02 µM,0.916
same,relative viability,PAC-1; 0.06325 µM,0.916
same,relative viability,PAC-1; 0.2 µM,0.856
same,relative viability,PAC-1; 2 µM,0.81
same,relative viability,BMX-IN-1 + Crizotinib; first compound 0.02 µM,1.15
same,relative viability,BMX-IN-1 + Crizotinib; first compound 0.2 µM,1.11
same,relative viability,BMX-IN-1 + Crizotinib; first compound 0.6325 µM,1.03
same,relative viability,BMX-IN-1 + Crizotinib; first compound 2 µM,0.918
NCI-H1355,relative viability,Ibrutinib; 0.01581 µM,0.975
same,relative viability,Ibrutinib; 0.05 µM,1.02
same,relative viability,Ibrutinib; 0.1581 µM,0.826
same,relative viability,Ibrutinib; 0.5 µM,0.843
same,relative viability,BMX-IN-1; 0.02 µM,1.03
same,relative viability,BMX-IN-1; 0.2 µM,1.06
same,relative viability,BMX-IN-1; 0.6325 µM,1.11
same,relative viability,BMX-IN-1; 2 µM,1.12
same,relative viability,PAC-1; 0.02 µM,0.983
same,relative viability,PAC-1; 0.06325 µM,1.02
same,relative viability,PAC-1; 0.2 µM,0.968
same,relative viability,PAC-1; 2 µM,1.06
same,relative viability,BMX-IN-1 + Crizotinib; first compound 0.02 µM,1.27
same,relative viability,BMX-IN-1 + Crizotinib; first compound 0.2 µM,1.17
same,relative viability,BMX-IN-1 + Crizotinib; first compound 0.6325 µM,1.08
same,relative viability,BMX-IN-1 + Crizotinib; first compound 2 µM,1.13
NCI-H2085,relative viability,Ibrutinib; 0.005 µM,0.997
same,relative viability,Ibrutinib; 0.01581 µM,0.974
same,relative viability,Ibrutinib; 0.05 µM,0.902
same,relative viability,Ibrutinib; 0.1581 µM,0.882
same,relative viability,Ibrutinib; 0.5 µM,0.905
same,relative viability,BMX-IN-1; 0.02 µM,1.03
same,relative viability,BMX-IN-1; 0.2 µM,0.997
same,relative viability,BMX-IN-1; 0.6325 µM,1
same,relative viability,BMX-IN-1; 2 µM,1.01
same,relative viability,PAC-1; 0.02 µM,1.05
same,relative viability,PAC-1; 0.06325 µM,1.02
same,relative viability,PAC-1; 0.2 µM,0.989
same,relative viability,PAC-1; 2 µM,0.98
same,relative viability,BMX-IN-1 + Crizotinib; first compound 0.02 µM,0.98
same,relative viability,BMX-IN-1 + Crizotinib; first compound 0.2 µM,0.815
same,relative viability,BMX-IN-1 + Crizotinib; first compound 0.6325 µM,0.897
same,relative viability,BMX-IN-1 + Crizotinib; first compound 2 µM,0.855
NCI-H650,relative viability,Ibrutinib; 0.005 µM,0.772
same,relative viability,Ibrutinib; 0.01581 µM,0.991
same,relative viability,Ibrutinib; 0.05 µM,0.802
same,relative viability,Ibrutinib; 0.1581 µM,1.05
same,relative viability,Ibrutinib; 0.5 µM,1.01
same,relative viability,BMX-IN-1; 0.02 µM,0.905
same,relative viability,BMX-IN-1; 0.2 µM,1.01
same,relative viability,BMX-IN-1; 0.6325 µM,1.02
same,relative viability,BMX-IN-1; 2 µM,0.951
same,relative viability,PAC-1; 0.02 µM,0.976
same,relative viability,PAC-1; 0.06325 µM,0.966
same,relative viability,PAC-1; 0.2 µM,0.891
same,relative viability,PAC-1; 2 µM,0.872
same,relative viability,BMX-IN-1 + Crizotinib; first compound 0.02 µM,0.881
same,relative viability,BMX-IN-1 + Crizotinib; first compound 0.2 µM,0.863
same,relative viability,BMX-IN-1 + Crizotinib; first compound 0.6325 µM,0.707
same,relative viability,BMX-IN-1 + Crizotinib; first compound 2 µM,0.774
NCI-H460,relative viability,Ibrutinib; 0.005 µM,1.07
same,relative viability,Ibrutinib; 0.01581 µM,0.922
same,relative viability,Ibrutinib; 0.05 µM,0.979
same,relative viability,Ibrutinib; 0.1581 µM,0.917
same,relative viability,Ibrutinib; 0.5 µM,1.02
same,relative viability,BMX-IN-1; 0.02 µM,1.24
same,relative viability,BMX-IN-1; 0.2 µM,1.09
same,relative viability,BMX-IN-1; 0.6325 µM,1.04
same,relative viability,BMX-IN-1; 2 µM,1.07
same,relative viability,PAC-1; 0.02 µM,0.979
same,relative viability,PAC-1; 0.06325 µM,0.966
same,relative viability,PAC-1; 0.2 µM,0.934
same,relative viability,PAC-1; 2 µM,1.07
same,relative viability,BMX-IN-1 + Crizotinib; first compound 0.02 µM,1.57
same,relative viability,BMX-IN-1 + Crizotinib; first compound 0.2 µM,1.76
same,relative viability,BMX-IN-1 + Crizotinib; first compound 0.6325 µM,0.906
same,relative viability,BMX-IN-1 + Crizotinib; first compound 2 µM,1.03
NCI-H1666,relative viability,Ibrutinib; 0.005 µM,1.03
same,relative viability,Ibrutinib; 0.01581 µM,0.984
same,relative viability,Ibrutinib; 0.05 µM,0.851
same,relative viability,Ibrutinib; 0.1581 µM,0.965
same,relative viability,Ibrutinib; 0.5 µM,0.867
same,relative viability,BMX-IN-1; 0.02 µM,1.05
same,relative viability,BMX-IN-1; 0.2 µM,1.06
same,relative viability,BMX-IN-1; 0.6325 µM,1.11
same,relative viability,BMX-IN-1; 2 µM,1.1
same,relative viability,PAC-1; 0.02 µM,1.01
same,relative viability,PAC-1; 0.06325 µM,1.01
same,relative viability,PAC-1; 0.2 µM,1
same,relative viability,PAC-1; 2 µM,1.04
same,relative viability,BMX-IN-1 + Crizotinib; first compound 0.02 µM,1.08
same,relative viability,BMX-IN-1 + Crizotinib; first compound 0.2 µM,0.98
same,relative viability,BMX-IN-1 + Crizotinib; first compound 0.6325 µM,1.05
same,relative viability,BMX-IN-1 + Crizotinib; first compound 2 µM,0.906
LK-2,relative viability,Ibrutinib; 0.005 µM,0.936
same,relative viability,Ibrutinib; 0.01581 µM,0.912
same,relative viability,Ibrutinib; 0.05 µM,0.956
same,relative viability,Ibrutinib; 0.1581 µM,0.929
same,relative viability,Ibrutinib; 0.5 µM,0.949
same,relative viability,BMX-IN-1; 0.02 µM,1.31
same,relative viability,BMX-IN-1; 0.2 µM,1.24
same,relative viability,BMX-IN-1; 0.6325 µM,0.978
same,relative viability,BMX-IN-1; 2 µM,1.02
same,relative viability,PAC-1; 0.02 µM,0.933
same,relative viability,PAC-1; 0.06325 µM,0.983
same,relative viability,PAC-1; 0.2 µM,1
same,relative viability,PAC-1; 2 µM,1.02
same,relative viability,BMX-IN-1 + Crizotinib; first compound 0.02 µM,0.232
same,relative viability,BMX-IN-1 + Crizotinib; first compound 0.2 µM,0.207
same,relative viability,BMX-IN-1 + Crizotinib; first compound 0.6325 µM,0.252
same,relative viability,BMX-IN-1 + Crizotinib; first compound 2 µM,0.191
NCI-H2009,relative viability,Ibrutinib; 0.005 µM,1.14
same,relative viability,Ibrutinib; 0.01581 µM,0.971
same,relative viability,Ibrutinib; 0.05 µM,0.978
same,relative viability,Ibrutinib; 0.1581 µM,0.962
same,relative viability,Ibrutinib; 0.5 µM,1.09
same,relative viability,BMX-IN-1; 0.02 µM,1.08
same,relative viability,BMX-IN-1; 0.2 µM,1.07
same,relative viability,BMX-IN-1; 0.6325 µM,1.09
same,relative viability,BMX-IN-1; 2 µM,1.02
same,relative viability,PAC-1; 0.02 µM,0.978
same,relative viability,PAC-1; 0.06325 µM,1.03
same,relative viability,PAC-1; 0.2 µM,0.94
same,relative viability,PAC-1; 2 µM,0.99
same,relative viability,BMX-IN-1 + Crizotinib; first compound 0.02 µM,1.11
same,relative viability,BMX-IN-1 + Crizotinib; first compound 0.2 µM,1.07
same,relative viability,BMX-IN-1 + Crizotinib; first compound 0.6325 µM,1.26
same,relative viability,BMX-IN-1 + Crizotinib; first compound 2 µM,1.06
COR-L 105,relative viability,Ibrutinib; 0.005 µM,0.806
same,relative viability,Ibrutinib; 0.01581 µM,0.878
same,relative viability,Ibrutinib; 0.05 µM,0.676
same,relative viability,Ibrutinib; 0.1581 µM,0.814
same,relative viability,Ibrutinib; 0.5 µM,0.393
same,relative viability,BMX-IN-1; 0.02 µM,1.07
same,relative viability,BMX-IN-1; 0.2 µM,0.937
same,relative viability,BMX-IN-1; 0.6325 µM,1.3
same,relative viability,BMX-IN-1; 2 µM,0.961
same,relative viability,PAC-1; 0.02 µM,0.919
same,relative viability,PAC-1; 0.06325 µM,0.901
same,relative viability,PAC-1; 0.2 µM,0.903
same,relative viability,PAC-1; 2 µM,0.985
same,relative viability,BMX-IN-1 + Crizotinib; first compound 0.02 µM,0.832
same,relative viability,BMX-IN-1 + Crizotinib; first compound 0.2 µM,0.892
same,relative viability,BMX-IN-1 + Crizotinib; first compound 0.6325 µM,0.727
same,relative viability,BMX-IN-1 + Crizotinib; first compound 2 µM,0.583

# — the supplement of paper PMC10307832
